The text below walks through data of patent US11891667B2, “IGF2BP3 functional alterations and overexpression as a marker for cancer diagnosis and therapeutic response to IGF1R inhibitors” (UNIVERSITY OF PITTSBURGH-OF THE COMMONWEALTH SYSTEM OF …, priority 2016, dated 2024).

One assay relates to solid tumors. As to conditions: cited from earlier work.
Assay [1] relates to FTC133 thyroid cancer cell tumors. Description: FTC133 xenograft in nude mice. In kind it is in vivo. As to conditions: FIG. 5G; for tumor growth: FTC133 subcutaneous xenograft, nude mice, therapeutic doses. As for the experimental part:
(§1) Next, tumor cells overexpressing IGF2BP3 were tested to see if their growth can be blocked via IGF1R inhibition in vivo using a xenograft experimental model. Pancreatic cancer cells PaCa-2 and colon cancer cells Caco-2, both expressing IGF2PB3 at high level (FIG. 5B), and thyroid cancer cells FTC133 with low levels of IGF2BP3 expression were employed to establish tumors growing in nude mice at sites of subcutaneous cell injection.

Another assay relates to PaCa-2 cancer cells. Description: Cell growth/proliferation of PaCa-2 cancer cells (high IGF2BP3). The class given is cell-based, human. The protocol: (§2) The effects of IGF1R inhibition on the growth of cancer cells driven by IGF2PB3 overexpression were then tested. First, studies were conducted to determine if activation of the AKT and MAPK pathways and cell growth induced by IGF2BP3 overexpression is affected by inhibiting IGF1R by OSI-906 in vitro. […] The experiments were repeated in quadruplicate and were calculated as percentage of viable cells after treatment with OSI-906 (mean±SD). […] Again, the assay was performed in quadruplicate and shown as mean±SD.

For assay [2], the system named is U2OS cells with induced IGF2BP3 expression. Description: Cell growth of U2OS cells transiently transfected with IGF2BP3. In kind it is cell-based. As to conditions: IGF2BP3 induced by transient transfection, FIG. 5C. As for the experimental part:
as §2

A further assay deals with U2OS cells. Description: Cell growth/proliferation of U2OS cells (low IGF2BP3). In kind it is cell-based. As for the experimental part:
as §2

The next assay has as its system FTC133 cells. Description: Cell growth/proliferation of FTC133 cells (low IGF2BP3). The class given is cell-based, human. As for the experimental part: as §2
Assay [3] relates to FTC133 cells with induced IGF2BP3 expression. Briefly: Cell growth of FTC133 cells transiently transfected with IGF2BP3. In kind it is cell-based, human. As to conditions: FTC133, IGF2BP3 induced by transient transfection, FIG. 5C. As for the experimental part: as §2
In the next assay the test system is IGF1R. Briefly: Western blotting of IGF1R phosphorylation and downstream signaling in HEK293 cells overexpressing IGF2BP3. As to conditions: FIG. 5A. The class given is cell-based. The protocol: as §2
Another assay has as its system PaCa-2 cells. Description: Soft agar colony formation of PaCa-2 cells. The class given is cell-based, human. As for the experimental part: Finally, the impact of IGF2BP3 overexpression on cell transformation was investigated.
as §2

Assay [4] concerns PaCa-2 pancreatic cancer cell tumors. Description: PaCa-2 xenograft in nude mice. As to conditions: FIG. 5F; for tumor growth: PaCa-2 subcutaneous xenograft, nude mice, therapeutic doses. The class given is in vivo. As for the experimental part:
as §1

The subject of assay [5] is Caco-2 colon cancer cell tumors. Briefly: Caco-2 xenograft in nude mice. As to conditions: FIG. 5F; for tumor growth: Caco-2 subcutaneous xenograft, nude mice, therapeutic doses. In kind it is in vivo. As for the experimental part:
as §1

On to `C[C@]1(O)C[C@@H](c2nc(-c3ccc4ccc(-c5ccccc5)nc4c3)c3c(N)nccn32)C1` [OSI-906, linsitinib], for which the “proportion of patients with clinical response” value with solid tumors (clinical trials, patients with solid tumors) is listed as 1-5%. For the same compound, in the assay with solid tumors (clinical trials), the “efficacy in patients in clinical trials” value was “ineffective in the vast majority of patients”. Besides, the “tumor responsiveness in clinical trials” value in the assay with solid tumors (colorectal cancer, non-small cell lung cancer, sarcoma, and other cancer types) was “only low levels of tumor responsiveness were observed”. In addition, the tumor growth entry is on record as “had no effect on the growth” in [1]; “not impacted” in assay [1] (listed as linsitinib); “arrested growth of tumors” in assay [4]; “particularly inhibited” in [4] (listed as linsitinib); “arrested growth of tumors” in assay [5]; “particularly inhibited” in assay [5] (listed as linsitinib). In addition, the “phosphorylated IGF1R, AKT, S6, and ERK in the tumor tissue” value is “did not show reduction in the phosphorylation” in [1] (FTC133 xenograft tumor tissue); “reduction of phosphorylated IGF1R, AKT, S6, and ERK” in assay [4] (PaCa-2 xenograft tumor tissue); “reduction of phosphorylated IGF1R, AKT, S6, and ERK” in assay [5] (Caco-2 xenograft tumor tissue). Further, the cell growth result in the assay on PaCa-2 cancer cells (PaCa-2, strongly overexpress IGF2BP3, FIG. 5B) is recorded as “dose-dependent growth inhibition”; in assay [2] it was “acquired sensitivity to growth inhibition”; in the assay on U2OS cells (low IGF2BP3 expression, FIG. 5B), “did not have any effects”; in the assay on FTC133 cells (FTC133, low IGF2BP3 expression, FIG. 5B), “did not have any effects”; in assay [3], “acquired sensitivity to growth inhibition”. Also, the “proliferation (percentage of viable cells)” value in the assay with PaCa-2 cancer cells (PaCa-2, treatment for 72 hours, FIG. 5B bottom panel) is on record as “inhibition of proliferation”; in the assay with U2OS cells (treatment for 72 hours, FIG. 5B bottom panel), “no effect on proliferation”; in the assay with FTC133 cells (FTC133, treatment for 72 hours, FIG. 5B bottom panel) it was “no effect on proliferation”. The “IGF1R phosphorylation and downstream signaling induced by IGF2BP3” value in the assay with IGF1R (5 μM, 30 minutes) is “inhibition of IGF1R phosphorylation and downstream signaling”. For the same compound, the “phosphorylation of AKT, S6, and ERK induced by IGF2BP3 overexpression” value with IGF1R (Western blotting) is “blocked phosphorylation of AKT, S6, and ERK”. Besides, in the assay with PaCa-2 cells, the “colony formation in soft agar” value is given as “significant reduction of colony formation”.
